Experimental data taken from patent US20040224878A1, “Fertilization of aged oocytes” (priority 2000, published 2004).

Columns and labels:
[1] = tested on: mouse cumulus-oocyte complex (COC); settings: addition to the culture medium of mouse COC; cited from earlier work
[2] = tested on: aged oocytes; test: Cell cycle progression (GV, GVBD, PB) of young and aged oocytes after 22 h culture; type: cell-based, CBA/Ca mouse; settings: 10 μM FF-MAS in Hx-medium, aged (35-38 week old) vs young (5-6 weeks old) oocytes, FIG. 1
Experimental: The CBA/Ca mouse provides a model system for studies on the maternal age effect of oocytes (7). This model is characterised by its relatively limited pool of follicles with low number of aged oocytes in the sexually mature adult female, similar to the human. All the following studies were carried out in the CBA/Ca mice. Animals were kept under controlled lighting and temperature.
Oocytes from young (5-6 weeks old) and aged (35-38 week old) CBA/Ca mice in the diestrus stage of the cycle were investigated. Oocytes were isolated in Hx-medium (see below) under a stereo microscope by manual rupture of the follicles using a pair of 27 gauge needles. […]
(a) By the end of the culture period cell cycle progression was analysed by counting the number of oocytes with germinal vesicle (GV) or germinal vesicle breakdown (GVB) and those with polar body (PB) by using a stereo microscope or an inverted microscope with differential interference contrast equipment. The percentage of oocytes with GV, GVBD and PB per total number of oocytes, respectively, was calculated in the 4 treatment groups of young and aged oocytes, respectively.

[3] = tested on: aged metaphase 11 oocytes; test: Cytogenetic analysis (chromosome count, hyperploidy) of cultured oocytes; type: cell-based, CBA/Ca mouse; settings: 10 μM FF-MAS given alone or in combination with Hx, 22 hours culture, FIG. 2
Experimental: The CBA/Ca mouse provides a model system for studies on the maternal age effect of oocytes (7). This model is characterised by its relatively limited pool of follicles with low number of aged oocytes in the sexually mature adult female, similar to the human. All the following studies were carried out in the CBA/Ca mice. Animals were kept under controlled lighting and temperature. Oocytes from young (5-6 weeks old) and aged (35-38 week old) CBA/Ca mice in the diestrus stage of the cycle were investigated. Oocytes were isolated in Hx-medium (see below) under a stereo microscope by manual rupture of the follicles using a pair of 27 gauge needles. Spherical, naked oocytes (NO) displaying an intact germinal vesicle (GV) were placed in a-minimum essential medium (x-MEM without ribonucleosides, Gibco BRL, Cat. No. 22561) supplemented with 3 mM hypoxanthine (Sigma Cat. No. H-9377), 8 mg/ml Human Serum Albumin (HSA, State Serum Institute, Denmark), 0.23 mM pyruvate (Sigma, Cat. No. S-8636), 2 mM glutamine (Flow Cat. No. 16-801), 100 IU/ml penicillin and 100 μg/ml streptomycin (Flow, Cat No. 16-700). This medium was designated Hx-medium. […] The number of chromosomes was counted in each oocyte. […]

[4] = tested on: oocytes; settings: mouse; cited from earlier work
[5] = tested on: human oocytes; settings: concentrations around those observed in vivo, culture medium of human oocytes during IVF; cited from earlier work

## Cl.Cl.Clc1ccccc1CNCC1CCC(CNCc2ccccc2Cl)CC1 (centres unmarked) [AY9944]
[1]
  accumulation of FF-MAS: has the capacity to induce accumulation of FF-MAS

## CC(C)=CCC[C@@H](C)[C@H]1CC=C2C3=C(CC[C@@]21C)[C@@]1(C)CC[C@H](O)C(C)(C)[C@@H]1CC3 [FF-MAS, 4,4-dimethyl-5α-cholesta-8,14,24-triene-31-ol]
[2]
  maturation to metaphase 11 (cell cycle progression): more successful to mature to metaphase 11 than young oocytes
[3]
  numerical aberration rate, e.g. hyperploidy: reduces numerical aberration rate
[4]
  nuclear (meiotic) and cytoplasmic maturation: induces nuclear (meiotic) and cytoplasmic maturation

## EGF: growth factor enhancing endogenous production of MAS in the cumulus enclosed oocyte (NSDSECPLSHDGYCLHDGVCMYIEALDKYACNCVVGYIGERCQYRDLKWWELR; UniProt P01133 971-1023, looked up)
[5]
  implantation rates of the retrieved oocytes: significant improved implantation rates
